According to US10441630B2, “Topical formulations and uses thereof” (OCULAR TECHNOLOGIES SARL, priority 2012, dated 2019):

Experiment: Mixed nanomicellar size and polydispersity index (Zetasizer) of compound 1001 MNF
Assay type: physicochemical
Details: HCO-60 4 wt %, Octoxynol-40 0.01 wt %
Description: The formulation size and polydispersity index were determined with Zetasizer, Malvern Instruments, NJ. In brief, approximately 1 ml of each formulation was transferred to a cuvette and placed in the instrument. A laser beam of light was used to determine the mixed nanomicellar size.
Mixed nanomicellar formulation encapsulating compound 1001 was prepared by solvent evaporation method in two steps: 1) Preparation of basic formulation and 2) rehydration. In step one, compound 1001, HCO-60 and octoxynol-40 were dissolved separately in 0.3 mL of ethyl acetate. These three solutions were mixed together in 15-mL centrifuge tube. The resultant mixture was vortexed to obtain a homogenous solution. Ethyl acetate solvent was removed with speed vacuum to obtain a solid thin film. The residue was kept overnight under high vacuum at room temperature to remove residual organic solvent. In step two, the resultant thin film was hydrated with 1 mL of double distilled deionized water by vortexing the solution. The rehydrated formulation was suspended in 2× phosphate buffer solution, (pH 6.5). It was filtered through 0.2 μm nylon filter membrane to remove the unentrapped drug aggregates and other foreign particulates. The entrapment of compound 1001 was determined by RP-HPLC following disruption of the micelles and solubilization of 1001 in the diluent (2-propanol) as described below
Weight percent of drug loaded into MNF was determined following the method for entrapment efficiency. Size and polydispersity index of the formulations was determined with Malvern zetasizer as described above. The formulations appear clear and have small size and narrow size distribution.

[1] = 1001 initially added 0.035 wt %
[2] = 1001 initially added 0.070 wt %
[3] = 1001 initially added 0.095 wt %
[4] = 1001 initially added 0.120 wt %
[5] = 1001 initially added 0.250 wt %
[6] = 1001 initially added 0.300 wt %
[7] = 1001 initially added 0.400 wt %

For `C#CC[C@@H](O)/C=C/C=C/C#C[C@@H](O)CCCC(=O)OC(C)C` [compound 1001], the “Mixed nanomicellar size (nm)” value [1] was 24.90 nm, the “Polydispersity Index” value [1] was 0.442 and the “Mixed nanomicellar size (nm)” value [2] was 25.01 nm. The “Polydispersity Index” value [2] was 0.414, the “Mixed nanomicellar size (nm)” value [3] was 24.79 nm and the “Polydispersity Index” value [3] was 0.415. The “Mixed nanomicellar size (nm)” value [4] was 18.28 nm, the “Polydispersity Index” value [4] was 0.320 and the “Mixed nanomicellar size (nm)” value [5] was 18.37 nm. The “Polydispersity Index” value [5] was 0.331, the “Mixed nanomicellar size (nm)” value [6] was 18.29 nm and the “Polydispersity Index” value [6] was 0.345. The “Mixed nanomicellar size (nm)” value [7] was 18.2 nm and the “Polydispersity Index” value [7] was 0.333.
